Measurements reported in PubChem BioAssay AID1259407 (Chemical Carcinogenesis Research Information System (CCRIS), 2018).
The source made the active and inactive calls. How the calls were made is not given here.

System: CCRIS mutagenicity, Ames/micronucleus/aberration tests
Test: CCRIS mutagenicity studies
[1] = Test System: AMES SALMONELLA TYPHIMURIUM, Strain/Indicator: TA100, Metabolic Activation: NONE, Method: PREINCUBATION
[2] = Test System: AMES SALMONELLA TYPHIMURIUM, Strain/Indicator: TA98, Metabolic Activation: NONE, Method: STANDARD PLATE
[3] = Test System: AMES SALMONELLA TYPHIMURIUM, Strain/Indicator: TA100, Metabolic Activation: NONE, Method: STANDARD PLATE
[4] = Test System: AMES SALMONELLA TYPHIMURIUM, Strain/Indicator: TA100, Metabolic Activation: RAT, LIVER, S-9, AROCLOR 1254, Method: STANDARD PLATE

Q: With `O=S(=O)(O)c1ccccc1` as the compound, how does the mutagenic call (Test System: AMES SALMONELLA TYPHIMURIUM, Strain/Indicator: TA97, Metabolic Activation: HAMSTER, LIVER, S-9, AROCLOR 1254 (10 OR 30%), Method: PREINCUBATION) read?
A: Its mutagenic call is “inactive; negative”.

Q: What about the mutagenic call (Test System: AMES SALMONELLA TYPHIMURIUM, Strain/Indicator: TA97, Metabolic Activation: NONE, Method: PREINCUBATION) of the same compound?
A: Its mutagenic call is “inactive; negative”.

Q: What about the mutagenic call (Test System: AMES SALMONELLA TYPHIMURIUM, Strain/Indicator: TA97, Metabolic Activation: RAT, LIVER, S-9, AROCLOR 1254 (10 OR 30%), Method: PREINCUBATION) of the same compound?
A: The mutagenic call was “inactive; negative”.

Q: What about the mutagenic call (Test System: AMES SALMONELLA TYPHIMURIUM, Strain/Indicator: TA98, Metabolic Activation: HAMSTER, LIVER, S-9, AROCLOR 1254 (10 OR 30%), Method: PREINCUBATION) of the same compound?
A: The mutagenic call was “inactive; negative”.

Q: What about the mutagenic call (Test System: AMES SALMONELLA TYPHIMURIUM, Strain/Indicator: TA98, Metabolic Activation: NONE, Method: PREINCUBATION) of the same compound?
A: Its mutagenic call is “inactive; negative”.

Q: What about the mutagenic call (Test System: AMES SALMONELLA TYPHIMURIUM, Strain/Indicator: TA98, Metabolic Activation: RAT, LIVER, S-9, AROCLOR 1254 (10 OR 30%), Method: PREINCUBATION) of the same compound?
A: Its mutagenic call is “inactive; negative”.

Q: What about the mutagenic call (Test System: AMES SALMONELLA TYPHIMURIUM, Strain/Indicator: TA100, Metabolic Activation: HAMSTER, LIVER, S-9, AROCLOR 1254 (10 OR 30%), Method: PREINCUBATION) of the same compound?
A: Its mutagenic call is “inactive; negative”.

Q: What about the mutagenic call [1] of the same compound?
A: Its mutagenic call is “inactive; negative”.

Q: And the mutagenic call (Test System: AMES SALMONELLA TYPHIMURIUM, Strain/Indicator: TA100, Metabolic Activation: RAT, LIVER, S-9, AROCLOR 1254 (10 OR 30%), Method: PREINCUBATION)?
A: The mutagenic call was “inactive; negative”.

Q: What about the mutagenic call (Test System: AMES SALMONELLA TYPHIMURIUM, Strain/Indicator: TA1535, Metabolic Activation: HAMSTER, LIVER, S-9, AROCLOR 1254 (10 OR 30%), Method: PREINCUBATION) of the same compound?
A: The mutagenic call was “inactive; negative”.

Q: What about the mutagenic call (Test System: AMES SALMONELLA TYPHIMURIUM, Strain/Indicator: TA1535, Metabolic Activation: NONE, Method: PREINCUBATION) of the same compound?
A: The mutagenic call was “inactive; negative”.

Q: What about the mutagenic call (Test System: AMES SALMONELLA TYPHIMURIUM, Strain/Indicator: TA1535, Metabolic Activation: RAT, LIVER, S-9, AROCLOR 1254 (10 OR 30%), Method: PREINCUBATION) of the same compound?
A: Its mutagenic call is “inactive; negative”.

Q: Which results are given for `O=[N+]([O-])c1ccc(/C=N\O)o1`?
A: mutagenic call (Test System: E. COLI, Strain/Indicator: WP2 UVRA, Metabolic Activation: NONE, Method: SPOT): active; positive; mutagenic call (Test System: E. COLI, Strain/Indicator: WP2 UVRA, Metabolic Activation: NONE, Method: STANDARD PLATE): active; positive

Q: For `Cc1ccc(C)c2c3c(ccc12)C(O)C(O)C1OC31` (stereo unspecified), which mutagenic call [2] is on record?
A: The mutagenic call was “active; positive”.

Q: What about the mutagenic call [3] of the same compound?
A: The mutagenic call was “active; positive”.

Q: How did the mutagenic call (Test System: AMES SALMONELLA TYPHIMURIUM, Strain/Indicator: TA98, Metabolic Activation: HAMSTER, LIVER, S-9, AROCLOR 1254, Method: STANDARD PLATE) turn out when `Cc1cc(S(=O)(=O)O)c(N)cc1Cl` was run?
A: Its mutagenic call is “active; positive”.

Q: What about the mutagenic call [2] of the same compound?
A: Its mutagenic call is “inactive; negative”.

Q: And the mutagenic call (Test System: AMES SALMONELLA TYPHIMURIUM, Strain/Indicator: TA98, Metabolic Activation: RAT, LIVER, S-9, AROCLOR 1254, Method: STANDARD PLATE)?
A: Its mutagenic call is “active; positive”.

Q: What about the mutagenic call (Test System: AMES SALMONELLA TYPHIMURIUM, Strain/Indicator: TA100, Metabolic Activation: HAMSTER, LIVER, S-9, AROCLOR 1254, Method: STANDARD PLATE) of the same compound?
A: The mutagenic call was “inactive; negative”.

Q: What about the mutagenic call [3] of the same compound?
A: The mutagenic call was “inactive; negative”.

Q: What about the mutagenic call [4] of the same compound?
A: The mutagenic call was “inactive; negative”.

Q: And the mutagenic call (Test System: Ames Salmonella typhimurium, Strain/Indicator: TA98, Metabolic Activation: None, Method: Preincubation)?
A: Its mutagenic call is “inactive; negative”.

Q: And the mutagenic call (Test System: Ames Salmonella typhimurium, Strain/Indicator: TA98, Metabolic Activation: Rat, Liver, S9, Sodium phenobarbital and 5,6-benzoflavone (10%), Method: Preincubation)?
A: Its mutagenic call is “inactive; negative”.

Q: What about the mutagenic call (Test System: Ames Salmonella typhimurium, Strain/Indicator: TA100, Metabolic Activation: None, Method: Preincubation) of the same compound?
A: Its mutagenic call is “inactive; negative”.

Q: And the mutagenic call (Test System: Ames Salmonella typhimurium, Strain/Indicator: TA100, Metabolic Activation: Rat, Liver, S9, Sodium phenobarbital and 5,6-benzoflavone (10%), Method: Preincubation)?
A: Its mutagenic call is “inactive; negative”.

Q: And the mutagenic call (Test System: Ames Salmonella typhimurium, Strain/Indicator: TA1535, Metabolic Activation: None, Method: Preincubation)?
A: Its mutagenic call is “inactive; negative”.

Q: What about the mutagenic call (Test System: Ames Salmonella typhimurium, Strain/Indicator: TA1535, Metabolic Activation: Rat, Liver, S9, Sodium phenobarbital and 5,6-benzoflavone (10%), Method: Preincubation) of the same compound?
A: The mutagenic call was “inactive; negative”.

Q: What about the mutagenic call (Test System: Ames Salmonella typhimurium, Strain/Indicator: TA1537, Metabolic Activation: None, Method: Preincubation) of the same compound?
A: The mutagenic call was “inactive; negative”.

Q: And the mutagenic call (Test System: Ames Salmonella typhimurium, Strain/Indicator: TA1537, Metabolic Activation: Rat, Liver, S9, Sodium phenobarbital and 5,6-benzoflavone (10%), Method: Preincubation)?
A: The mutagenic call was “inactive; negative”.

Q: What about the mutagenic call (Test System: E. coli, Strain/Indicator: WP2uvrA/pKM101, Metabolic Activation: None, Method: Preincubation) of the same compound?
A: The mutagenic call was “inactive; negative”.

Q: What about the mutagenic call (Test System: E. coli, Strain/Indicator: WP2uvrA/pKM101, Metabolic Activation: Rat, Liver, S9, Sodium phenobarbital and 5,6-benzoflavone (10%), Method: Preincubation) of the same compound?
A: The mutagenic call was “inactive; negative”.

Q: What about the mutagenic call (Test System: MOUSE LYMPHOMA, Strain/Indicator: L5178Y (TK+/TK-), Metabolic Activation: NONE, Method: SUSPENSION/PLATE) of the same compound?
A: Its mutagenic call is “inactive; negative. reevaluation of results: negative”.

Q: What about the mutagenic call (Test System: MOUSE LYMPHOMA, Strain/Indicator: L5178Y (TK+/TK-), Metabolic Activation: RAT, LIVER, S-9, AROCLOR 1254, Method: SUSPENSION/PLATE) of the same compound?
A: Its mutagenic call is “inactive; negative. reevaluation of results: equivocal”.

Q: And the mutagenic call (Test System: UDS RODENT HEPATOCYTES, Strain/Indicator: THY INCORP (NON-S-PHASE), Metabolic Activation: NONE, Method: AUTORADIOGRAPHY)?
A: Its mutagenic call is “inactive; negative”.

Q: With `CC(C)=CCC[C@@](C)(O)[C@H]1CCC=CC1=O` as the compound, how does the mutagenic call (Test System: AMES SALMONELLA TYPHIMURIUM, Strain/Indicator: TM677, Metabolic Activation: NONE, Method: STANDARD PLATE) read?
A: The mutagenic call was “active; positive”.

Q: And the mutagenic call (Test System: AMES SALMONELLA TYPHIMURIUM, Strain/Indicator: TM677, Metabolic Activation: RAT, LIVER, S-9, AROCLOR 1254, Method: STANDARD PLATE)?
A: Its mutagenic call is “active; positive”.

Q: `NC(=O)CC1CO1` (stereo unspecified) was tested. Which mutagenic call [1] did it give?
A: The mutagenic call was “active; positive”.

Q: What about the mutagenic call [3] of the same compound?
A: The mutagenic call was “active; positive”.

Q: And the mutagenic call (Test System: AMES SALMONELLA TYPHIMURIUM, Strain/Indicator: TA100, Metabolic Activation: RAT, LIVER, S-9, AROCLOR 1254, Method: PREINCUBATION)?
A: Its mutagenic call is “active; positive”.

Q: What about the mutagenic call [4] of the same compound?
A: The mutagenic call was “active; positive”.
